We go through one molecule from publication PMC7010785, “Nandrolone induces a stem cell-like phenotype in human hepatocarcinoma-derived cell line inhibiting mitochondrial respiratory activity” (Scientific Reports, 2020).

In the assay the target is T1, mitochondrial respiratory chain complex III (CxIII, coenzyme Q-cytochrome c oxidoreductase) (Bos taurus, UniProt P00157+P13272).
T1 construct: gene MT-CYB; native complex in mitochondria isolated from bovine heart
The assay can be described thus: spectrophotometric initial rates of cytochrome c reduction with graded decylubiquinol in isolated mitochondria; reciprocal and Dixon plots. The assay is classed as biochemical. From the text:
spectrophotometric initial rates of cytochrome c reduction with graded decylubiquinol in isolated mitochondria; reciprocal and Dixon plots on mitochondrial respiratory chain complex III (CxIII, coenzyme Q-cytochrome c oxidoreductase) | indicate a competitive modality of inhibition.

As usually defined, the Ki is the equilibrium dissociation constant of an inhibitor or competing ligand from its target. As to `C[C@]12CC[C@H]3[C@@H](CCC4=CC(=O)CC[C@@H]43)[C@@H]1CC[C@@H]2O` [ND, nandrolone], the Ki was roughly 300 µM.
